Results: patent US20050009837A1, “Modulators of lipid metabolism and methods of use” (City of Hope, priority 2003, published 2005)

Legend:
LXRα = biological target: T1, LXRα (Homo sapiens, UniProt Q13133); test: Transient transfection assay Gal-hLXRα + RXR LBD, UASGx4 TK Luc reporter, CV-1 cells; assay type: cell-based
T1 construct: expressed in transfected cells; host or cells: CV-1 cells
T1 sequence (Q13133 209-447 limits assumed): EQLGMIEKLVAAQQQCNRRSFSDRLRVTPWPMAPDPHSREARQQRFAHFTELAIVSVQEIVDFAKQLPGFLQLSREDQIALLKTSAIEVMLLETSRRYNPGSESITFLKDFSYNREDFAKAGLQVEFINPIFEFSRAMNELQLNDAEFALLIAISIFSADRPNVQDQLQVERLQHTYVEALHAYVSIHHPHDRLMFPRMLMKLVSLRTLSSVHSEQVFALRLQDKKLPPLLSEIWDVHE
T1 sequence (P19793 227-458 partner limits assumed): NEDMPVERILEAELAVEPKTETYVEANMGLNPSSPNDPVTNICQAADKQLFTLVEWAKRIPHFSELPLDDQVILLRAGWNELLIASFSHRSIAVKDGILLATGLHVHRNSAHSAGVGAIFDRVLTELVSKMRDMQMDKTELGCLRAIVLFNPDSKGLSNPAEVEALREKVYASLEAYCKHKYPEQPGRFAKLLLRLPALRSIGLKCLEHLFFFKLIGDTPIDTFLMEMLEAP
Description: (§1) Synthetic compounds were screened in an effort to find more specific LXR inhibitors. CV-1 cells were maintained and transfected using known methods. Forman et al., Cell 81: 687-693, 1995. CV-1 cells were transiently transfected with Gal-hLXRα, the RXR LBD, the UASGx4 TK Luc reporter and CMX-β-gal as an internal control, either in standard or in lipid-stripped serum. After transfection, cells were treated for approximately 40 hours with phenol red-free DMEM-FBS containing the indicated compounds at the following concentrations: T0901317 (100 nM), Clotrimazole (10 μM), S883417(10 μM) and S100250 (10 μM), unless otherwise specified. After exposure to ligand, the cells were harvested and assayed for luciferase and β-galactosidase activity. The luciferase activity was normalized to the internal β-galactosidase control (reporter activity).
The ability of these compounds to repress LXRα and LXRβ was compared by transfecting CV-1 cells with either the RXR LBD alone or the RXR LBD together with either Gal-LXRα or Gal-LXRβ.
Transfections were performed as described above, with increasing concentrations of Clotrimazole.

CV-1 cells = test: Cytotoxicity in transfected CV-1 cells; details: T0901317 100 nM; Clotrimazole, S883417, S100250 10 μM; approximately 40 hours
Description: as §1

- repression of LXRα activity (LXRα; 10 μM, approximately 40 hours, lipid-stripped serum): powerful antagonist
- antagonist potency LXRα compared with LXRβ (LXRα; dose-response, FIG. 5): more potent antagonist of LXRα than LXRβ
- EC50 (LXRα; dose-response, increasing concentrations, read-out: EC50 for repression of LXRα constitutive activity): ~10 µM
Compound: Clc1ccccc1C(c1ccccc1)(c1ccccc1)n1ccnc1 [Clotrimazole]
- cytotoxicity (CV-1 cells): No cytotoxicity
